Source: patent publication US20230366033A1, “METHODS FOR TREATING CANCERS WITH INHIBITORS TARGETING THE ROLE OF GRB2 IN DNA REPAIR” (Board of Regents, The University of Texas System, priority 2020, published 2023)
Read-outs that look alike come from different tables or passages of the source. Where no end group is shown, it is not given here. [ ]: non-standard residue; d: D form. pY = N[C@@H](Cc1ccc(OP(=O)(O)O)cc1)C(=O)O

Key:
K109R GRB2 mutant = molecular target: T1, K109R GRB2 mutant (Homo sapiens, UniProt P62993, K109R); test: Microscale thermophoresis (MST) binding of synthetic peptides; settings: 100 nM Atto488-labelled K109R GRB2
T1 construct: 6xHis; made in house
T1 sequence (P62993 whole entry K109R): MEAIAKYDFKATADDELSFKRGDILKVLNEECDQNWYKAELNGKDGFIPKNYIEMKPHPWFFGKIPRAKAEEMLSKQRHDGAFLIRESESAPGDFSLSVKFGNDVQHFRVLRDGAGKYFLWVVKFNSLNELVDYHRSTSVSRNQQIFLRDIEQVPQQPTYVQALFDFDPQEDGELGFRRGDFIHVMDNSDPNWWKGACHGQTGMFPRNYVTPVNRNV
Text: (§1) FIGS. 3A-3I. Identification of GRB2 binding interfaces on MRE11, RPA70 and H2AX. (FIG. 3A) Schematic DDR binding-motifs (circles) on GRB2 within its domain architecture. Approximate non-canonical binding motifs are shown. (FIG. 3B) GST-SH domains pulldown of HEK293T cell-extracts followed by immunoblotting with indicated antibodies. (FIG. 3C) GST pulldown of bacterially expressed and purified human MRE11 with indicated GRB2 SH-domains. (FIG. 3D) OB1 fold binding motifs sequence alignment (top). MST isotherms of 50 nM Atto488-labelled RPA70 N-terminal domain (residue 1-120) binding to titrating concentrations (2 nM to 20 μM) of GRB2 or GRB2-derived OB1 peptide. The binding affinity (Kd) is shown. (FIG. 3E) Strep-Tactin precipitation of WT and DF/AA mutant from HEK293T cells that were either untreated (normal) or immediately after IR treated (5 Gy) and lysed, followed by western blot detection with the indicated antibodies. (FIG. 3F) MST-binding isotherms of an Atto488-labelled GRB2-SH2 domain (100 nM) binding to titrating concentrations (30 nM to 500 μM) of synthetic peptides derived from indicated proteins. (FIG. 3G) MST-isotherms of 100 nM Atto488-labelled K109R GRB2 mutant binding to titrating concentrations (30 nM to 200 μM) of synthetic peptides derived from the indicated proteins. Each isotherm was derived from the raw data and fitted according to the law of mass action to yield an apparent Kd. (FIG. 3H) Molecular docking overlay model of GRB2-SH2 domain with (PDB: 3wa4) and without (PDB: 1gri) showing S88 and S90 movement ˜4.7 Å when bound to phosphotyrosine peptide (PDB: 3wa4). K109R shown modeled, which could engage with the loop containing S88 and S90 residues. (FIG. 3I) Docking of pH2AX, MRE11 and pEGFR peptide into GRB2 SH2 domain pocket. The relative docking orientation of each peptide is shown.
(§2) Microscale thermophoresis. The MST method has been described in detail elsewhere (Seidel et al., 2013). The Kd values were measured using the Monolith NT.115 system (Nano Temper). Proteins were fluorescently labeled with Atto 488 according to the manufacturer's protocol. Labeling efficiency was determined to be 1:1 (protein:dye) by measuring the absorbance at 280 and 488 nm. A solution of peptides or proteins in 0.01 M HEPES (pH 7.4), 0.15 M NaCl and 0.005% v/v Surfactant P20 was serially diluted, typically from about 100 μM to 30 nM in the presence of 100 nM labeled protein. The samples were loaded into silica capillaries (Polymicro Technologies) after incubation at room temperature for 15 min. Measurements were performed at 22° C. using 20% LED power and 40% IR-laser power. Measurements were also carried out using 20% and 60% IR-laser power for comparison. Data analyses were performed using Nano Temper Analysis software using the Kd curve fitting function. Raw data were exported and fitting curves were generated using Prism 8 (GraphPad Software) for presentation.

GRB2-SH2 domain = molecular target: T2, GRB2-SH2 domain (Homo sapiens, UniProt P62993); test: as above
T2 construct: 6xHis; made in house
T2 sequence (P62993 60-152 limits assumed): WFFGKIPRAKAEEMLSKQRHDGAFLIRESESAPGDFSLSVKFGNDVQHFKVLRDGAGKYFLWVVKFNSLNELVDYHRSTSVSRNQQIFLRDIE
Text: as §1, §2

CC(C)C[C@H](NC(=O)[C@H](CC(N)=O)NC(=O)CNC(=O)[C@H](CC(=O)O)NC(=O)[C@H](CCC(N)=O)NC(=O)[C@H](Cc1ccc(O)cc1)NC(=O)[C@H](CC(N)=O)NC(=O)[C@@H](NC(=O)[C@H](Cc1c[nH]c2ccccc12)NC(=O)[C@@H]1CCCN1)C(C)C)C(=O)N[C@@H](CC(N)=O)C(=O)O
binding affinity to K109R GRB2 relative to WT GRB2 (K109R GRB2 mutant): at least two orders of magnitude weaker

CC[C@H](C)[C@H](NC(=O)[C@H](Cc1ccc(OP(=O)(O)O)cc1)NC(=O)[C@H](CCC(=O)O)NC(=O)[C@@H]1CCCN1C(=O)[C@@H](NC(=O)[C@@H]1CCCN1C(=O)[C@H](CC(C)C)NC(=O)[C@@H](N)Cc1ccccc1)C(C)C)C(=O)N[C@@H](CC(N)=O)C(=O)N[C@@H](CCC(N)=O)C(=O)N[C@@H](CO)C(=O)N[C@H](C(=O)N1CCC[C@H]1C(=O)N[C@@H](CCCCN)C(=O)N[C@@H](CCCNC(=N)N)C(=O)O)C(C)C [pEGFR]
binding affinity to K109R GRB2 relative to WT GRB2 (K109R GRB2 mutant): comparable to that of ^WTGRB2 | Kd (GRB2-SH2 domain): 7.2 ± 2 µM

C[C@H](NC(=O)[C@H](CCCCN)NC(=O)[C@H](CCCCN)NC(=O)CNC(=O)CNC(=O)[C@H](CO)NC(=O)[C@@H]1CCCN1)C(=O)N[C@H](C(=O)N[C@@H](CCC(N)=O)C(=O)N[C@@H](C)C(=O)N[C@@H](COP(=O)(O)O)C(=O)N[C@@H](CCC(N)=O)C(=O)N[C@@H](CCC(=O)O)C(=O)N[C@@H](Cc1ccc(OP(=O)(O)O)cc1)C(=O)O)[C@@H](C)O [pH2AX peptide]
binding affinity to K109R GRB2 relative to WT GRB2 (K109R GRB2 mutant): comparable to that of ^WTGRB2 | Kd (GRB2-SH2 domain; MST, 100 nM Atto488-labelled GRB2-SH2 domain, read-out: Kd, binding to GRB2-SH2 domain): 2.8 ± 3.3 µM

WVNpYQDGNLN (WVN[pY]QDGNLN)
effect of tyrosine phosphorylation on binding affinity for GRB2-SH2 domain (GRB2-SH2 domain; MST): limited impact on its binding affinity
